According to ChEMBL document CHEMBL1201862, “PubChem BioAssay data set” (2004):
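Briefly, cells in 96-well plates were exposed to five compound concentrations for 48 h, and endpoints were estimated by linear interpolation. GI50 is the concentration that inhibits growth by half.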 Activity calls are given as the source filed them. Rule as the data show it: active = GI50 up to about 1.1 µM and inactive = higher.

Experiments:
Experiment in all cases: growth of human tumour cells (NCI), 48 h
NCI/ADR-RES = system: NCI/ADR-RES
SNB-19 = system: SNB-19
U-251 = system: U-251
SK-MEL-2 = system: SK-MEL-2
SK-OV-3 = system: SK-OV-3
NCI-H460 = system: NCI-H460
DU-145 = system: DU-145
HCC 2998 = system: HCC 2998
OVCAR-5 = system: OVCAR-5
SK-MEL-5 = system: SK-MEL-5
OVCAR-4 = system: OVCAR-4
UO-31 = system: UO-31
MDA-MB-231 = system: MDA-MB-231
ACHN = system: ACHN
SF-539 = system: SF-539
SR = system: SR
SN12C = system: SN12C
UACC-62 = system: UACC-62
Hs-578T = system: Hs-578T
OVCAR-8 = system: OVCAR-8
NCI-H23 = system: NCI-H23
A498 = system: A498
SK-MEL-28 = system: SK-MEL-28
EKVX = system: EKVX
HT-29 = system: HT-29
SF-268 = system: SF-268
K562 = system: K562
RXF 393 = system: RXF 393
MCF7 = system: MCF7
KM12 = system: KM12
SW-620 = system: SW-620
IGROV-1 = system: IGROV-1
NCI-H226 = system: NCI-H226
HL-60 = system: HL-60
Malme-3M = system: Malme-3M
HOP-62 = system: HOP-62
MOLT-4 = system: MOLT-4
NCI-H522 = system: NCI-H522
T47D = system: T47D
SNB-75 = system: SNB-75
M14 = system: M14
HCT-15 = system: HCT-15
OVCAR-3 = system: OVCAR-3
PC-3 = system: PC-3
RPMI-8226 = system: RPMI-8226
CCRF-CEM = system: CCRF-CEM
HCT-116 = system: HCT-116
MDA-MB-435 = system: MDA-MB-435
CAKI-1 = system: CAKI-1
COLO 205 = system: COLO 205
TK-10 = system: TK-10
A549 = system: A549
SF-295 = system: SF-295
MDA-N = system: MDA-N
UACC-257 = system: UACC-257
LOX IMVI = system: LOX IMVI
HOP-92 = system: HOP-92
786-0 = system: 786-0

Measured: GI50

COc1ccc(N2C(=O)C3c4[nH]c5ccccc5c4C4CCCCCCCC4C3C2=O)cc1 (stereo not drawn)
inactive: NCI/ADR-RES > 10 µM | SNB-19 > 10 µM | U-251 > 10 µM | SK-MEL-2 > 10 µM | SK-OV-3 > 10 µM | NCI-H460 > 10 µM | DU-145 > 10 µM | HCC 2998 > 10 µM | OVCAR-5 > 10 µM | SK-MEL-5 > 10 µM | OVCAR-4 > 10 µM | UO-31 > 10 µM | MDA-MB-231 > 10 µM | ACHN > 10 µM | SF-539 6.95 µM | SR > 10 µM | SN12C > 10 µM | UACC-62 > 10 µM | Hs-578T > 10 µM | OVCAR-8 > 10 µM | NCI-H23 > 10 µM | A498 > 10 µM | SK-MEL-28 > 10 µM | EKVX > 10 µM | HT-29 > 10 µM | SF-268 > 10 µM | K562 > 10 µM | RXF 393 > 10 µM | MCF7 > 10 µM | KM12 > 10 µM | SW-620 > 10 µM | IGROV-1 > 10 µM | NCI-H226 > 10 µM | HL-60 > 10 µM | Malme-3M > 10 µM | HOP-62 > 10 µM | MOLT-4 > 10 µM | NCI-H522 > 10 µM | T47D > 10 µM | SNB-75 5.22 µM | M14 > 10 µM | OVCAR-3 > 10 µM | PC-3 > 10 µM | RPMI-8226 > 10 µM | CCRF-CEM 2.07 µM | HCT-116 1.7 µM | MDA-MB-435 > 10 µM | CAKI-1 > 10 µM | COLO 205 > 10 µM | TK-10 > 10 µM | A549 > 10 µM | SF-295 > 10 µM | MDA-N > 10 µM
> 10 µM: HCT-15

Cc1ccc(/C=N/Nc2ncccn2)s1
> 100 µM: HCT-15
inactive: NCI/ADR-RES > 100 µM | SNB-19 > 100 µM | U-251 > 100 µM | SK-MEL-2 > 100 µM | SK-OV-3 > 100 µM | HCC 2998 > 100 µM | OVCAR-5 > 100 µM | SK-MEL-5 > 100 µM | OVCAR-4 > 100 µM | UO-31 > 100 µM | MDA-MB-231 > 100 µM | UACC-257 > 100 µM | ACHN > 100 µM | SF-539 > 100 µM | SN12C > 100 µM | UACC-62 > 100 µM | Hs-578T > 100 µM | OVCAR-8 > 100 µM | NCI-H23 > 100 µM | LOX IMVI > 100 µM | SK-MEL-28 > 100 µM | EKVX > 100 µM | HT-29 > 100 µM | SF-268 > 100 µM | K562 > 10 µM | RXF 393 > 100 µM | MCF7 > 100 µM | HOP-92 > 100 µM | KM12 > 100 µM | SW-620 > 100 µM | IGROV-1 > 100 µM | NCI-H226 > 100 µM | Malme-3M > 100 µM | HOP-62 > 100 µM | NCI-H522 > 100 µM | T47D > 100 µM | SNB-75 > 100 µM | M14 > 100 µM | OVCAR-3 > 100 µM | PC-3 > 100 µM | RPMI-8226 > 100 µM | CCRF-CEM > 100 µM | HCT-116 > 100 µM | MDA-MB-435 > 100 µM | 786-0 > 100 µM | CAKI-1 > 100 µM | COLO 205 > 100 µM | TK-10 > 100 µM | A549 > 100 µM | SF-295 > 100 µM | MDA-N > 100 µM

CC(NC(CC12CC3CC(CC(C3)C1)C2)C(N)=O)c1ccccc1 (stereo not drawn)
31.7 µM: HCT-15
inactive: NCI/ADR-RES 17.8 µM | SNB-19 28.9 µM | U-251 13.3 µM | SK-OV-3 5.27 µM | NCI-H460 17.4 µM | DU-145 24.7 µM | HCC 2998 17.5 µM | OVCAR-5 17.5 µM | SK-MEL-5 13.4 µM | OVCAR-4 33.7 µM | UO-31 19.2 µM | MDA-MB-231 29.3 µM | UACC-257 15.2 µM | ACHN 20.9 µM | SR 17.4 µM | UACC-62 20.3 µM | OVCAR-8 23.6 µM | LOX IMVI 15.7 µM | A498 14.6 µM | SK-MEL-28 20 µM | EKVX 23.4 µM | HT-29 21 µM | SF-268 25 µM | K562 17.5 µM | MCF7 35 µM | SW-620 31.1 µM | IGROV-1 39.7 µM | HL-60 10.1 µM | Malme-3M 17.9 µM | HOP-62 28.1 µM | MOLT-4 16.2 µM | NCI-H522 18 µM | T47D 35.6 µM | M14 21.1 µM | OVCAR-3 13.2 µM | PC-3 27 µM | RPMI-8226 15.7 µM | CCRF-CEM 19.1 µM | HCT-116 18.7 µM | MDA-MB-435 16.7 µM | CAKI-1 23.3 µM | COLO 205 12.6 µM | TK-10 26.6 µM | A549 39.8 µM | SF-295 13 µM | MDA-N 25.6 µM
